In one assay the target is T1, mGPRC6A (mouse GPRC6A) (Mus musculus, UniProt Q8K4Z6).
T1 sequence (Q8K4Z6 21-928): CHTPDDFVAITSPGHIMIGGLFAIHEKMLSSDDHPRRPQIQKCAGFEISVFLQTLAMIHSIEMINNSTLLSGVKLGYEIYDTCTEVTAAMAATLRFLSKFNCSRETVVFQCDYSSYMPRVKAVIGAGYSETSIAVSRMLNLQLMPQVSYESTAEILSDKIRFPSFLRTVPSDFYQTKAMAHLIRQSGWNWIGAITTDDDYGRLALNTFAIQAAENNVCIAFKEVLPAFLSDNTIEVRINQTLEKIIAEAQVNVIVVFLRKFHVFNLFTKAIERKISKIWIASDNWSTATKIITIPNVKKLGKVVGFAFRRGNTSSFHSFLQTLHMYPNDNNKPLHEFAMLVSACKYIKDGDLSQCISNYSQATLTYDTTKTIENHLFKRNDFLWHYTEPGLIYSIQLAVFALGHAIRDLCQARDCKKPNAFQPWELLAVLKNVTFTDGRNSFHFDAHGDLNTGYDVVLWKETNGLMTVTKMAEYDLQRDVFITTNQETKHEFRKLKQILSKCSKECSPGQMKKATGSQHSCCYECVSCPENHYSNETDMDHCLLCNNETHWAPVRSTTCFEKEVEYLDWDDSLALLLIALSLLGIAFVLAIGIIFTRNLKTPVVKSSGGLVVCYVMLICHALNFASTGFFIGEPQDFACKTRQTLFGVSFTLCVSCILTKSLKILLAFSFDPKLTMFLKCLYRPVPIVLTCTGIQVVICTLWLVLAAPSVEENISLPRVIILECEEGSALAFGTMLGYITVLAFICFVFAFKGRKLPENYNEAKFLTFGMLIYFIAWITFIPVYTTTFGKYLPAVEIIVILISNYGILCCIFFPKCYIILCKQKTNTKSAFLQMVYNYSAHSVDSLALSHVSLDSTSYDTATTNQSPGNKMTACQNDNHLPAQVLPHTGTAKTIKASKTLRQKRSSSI
Briefly: ERK1/2 phosphorylation, FlpIn-TREx-HEK293-mGPRC6A cells. It counts as cell-based. The method, then:
pcDNA 5/FRT/TO constructs were isogenically integrated into a FlpIn-TREx-HEK293 cell line (Life Technologies). FlpIn-TREx-HEK293-mGPRC6A and FlpIn-TREx-HEK293-hGPRC6A cells were then selected using 600 μg/ml hygromycin and 5 μg/ml blasticidin and grown in culture medium consisting of Dulbecco’s Modified Eagle Medium (DMEM), supplemented with 10% (v/v) foetal bovine serum (FBS) at 37°C in 5% CO2 and were sub-cultured in a 1:3 ratio every 3–4 days. Cells were cultured overnight in the presence of 1 μg/ml tetracycline to induce GPRC6A expression. […] 48 h after transfection, cells were selected using 3 μg/ml puromycin and grown as above.
Cells were then stimulated with ligand at various time points and incubated at 37°C in 5% CO2. 10% FBS (v/v) was used as a positive control. The reaction was terminated by removal of compounds and lysis of cells with SureFire lysis buffer (TGR Biosciences). The lysates were then treated as per the SureFire ERK1/2 kit instructions. Plates were incubated in the dark at 37°C for 1 h, then left to equilibrate with the ambient temperature before the fluorescence signal was measured using a Fusion plate reader (PerkinElmer) with standard AlphaScreen settings. Data were normalised to the maximal response elicited by 10% FBS (v/v) at the same time point.

The test system of a further assay is MIN6 cells. Briefly: Insulin release from MIN6 cells. Format: cell-based, murine. Summed up:
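After 72 h culture and 2 h glucose-free deprivation, cells exposed to compound for 2 h at 37°C in Krebs buffer pH 7.4 with 2 mM or 16.7 mM glucose. Secreted insulin measured by ELISA, normalised to vehicle at matching glucose; LogEC50 from three- or four-parameter logistic fit.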

“Also recorded” adds a separate entry of the source.

Turning to `NCCC[C@H](N)C(=O)O` [L-ornithine], the “stimulation of ERK1/2 phosphorylation” value at mGPRC6A (mouse GPRC6A) (without GαqG66D, L-ornithine 1 mM, OCN variants 40 ng/ml, Fig 3B) is on record as “Neither L-ornithine (1 mM) nor OCN variants (40 ng/ml) stimulate ERK1/2 phosphorylation; also recorded: no detectable modulation of cAMP accumulation or phosphorylation of ERK1/2”. In addition, in the assay on MIN6 cells (L-ornithine 20 mM, 16.7 mM glucose, P < 0.01 vs Vehicle, 2 h, ELISA, Fig 6B), the glucose-sensitive insulin secretion entry is given as “significantly increased glucose-sensitive insulin secretion; also recorded: could be increased by L-ornithine”.
On to “OCN: osteoblast-derived peptide, osteocalcin; variant not specified at the place (YLYQWLGAPVPYPDPLEPRREVCELNPDCDELADHIGFQEAYRRFYGPV; UniProt P02818 52-100, looked up)”, for which, in the assay with mGPRC6A (mouse GPRC6A) (S1 Table), the “pERK1/2 response (summary)” value is listed as “no response”. In the assay on MIN6 cells (mouse OCN 0.03–30 ng/mL, 0.03–100 ng/mL (Fig 6B legend), low and high glucose), the “insulin secretion, OCN” value is reported as “failed to induce GSIS”.
